From PubChem BioAssay (NCI)
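Briefly, cells in 96-well plates were exposed to five compound concentrations for 48 h, and endpoints were estimated by linear interpolation. The concentration for full growth arrest is given as TGI.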

Columns and labels:
Experiment in all cases: NCI tumour cell line growth inhibition, 48 h
SK-MEL-28 melanoma = tested on: SK-MEL-28 melanoma
RXF 393 renal = tested on: RXF 393 renal
TK-10 renal = tested on: TK-10 renal
UACC-257 melanoma = tested on: UACC-257 melanoma
IGROV1 ovarian = tested on: IGROV1 ovarian
SN12C renal = tested on: SN12C renal
M19-MEL melanoma = tested on: M19-MEL melanoma
HCT-15 colon = tested on: HCT-15 colon
LOX IMVI melanoma = tested on: LOX IMVI melanoma
OVCAR-8 ovarian = tested on: OVCAR-8 ovarian
A549 NSCLC = tested on: A549 NSCLC
OVCAR-4 ovarian = tested on: OVCAR-4 ovarian
DMS 114 small cell lung = tested on: DMS 114 small cell lung
CAKI-1 renal = tested on: CAKI-1 renal
SF-295 CNS = tested on: SF-295 CNS
SNB-75 CNS = tested on: SNB-75 CNS
NCI-H522 lung = tested on: NCI-H522 lung
HT29 colon = tested on: HT29 colon
K-562 leukemia = tested on: K-562 leukemia
RPMI-8226 leukemia = tested on: RPMI-8226 leukemia
DMS 273 small cell lung = tested on: DMS 273 small cell lung
CCRF-CEM leukemia = tested on: CCRF-CEM leukemia
OVCAR-3 ovarian = tested on: OVCAR-3 ovarian
NCI-H226 lung = tested on: NCI-H226 lung
SW-620 colon = tested on: SW-620 colon
SK-MEL-2 melanoma = tested on: SK-MEL-2 melanoma
SK-MEL-5 melanoma = tested on: SK-MEL-5 melanoma
HOP-92 NSCLC = tested on: HOP-92 NSCLC
HOP-62 NSCLC = tested on: HOP-62 NSCLC
M14 melanoma = tested on: M14 melanoma
SF-268 CNS = tested on: SF-268 CNS
NCI-H460 lung = tested on: NCI-H460 lung
MALME-3M melanoma = tested on: MALME-3M melanoma
ACHN renal = tested on: ACHN renal
SF-539 CNS = tested on: SF-539 CNS
SNB-19 CNS = tested on: SNB-19 CNS
MOLT-4 leukemia = tested on: MOLT-4 leukemia
RXF-631 renal = tested on: RXF-631 renal
UACC-62 melanoma = tested on: UACC-62 melanoma
OVCAR-5 ovarian = tested on: OVCAR-5 ovarian
LXFL 529 NSCLC = tested on: LXFL 529 NSCLC
COLO 205 colon = tested on: COLO 205 colon
SK-OV-3 ovarian = tested on: SK-OV-3 ovarian
U251 CNS = tested on: U251 CNS
KM12 colon = tested on: KM12 colon
HL-60(TB) leukemia = tested on: HL-60(TB) leukemia
786-0 renal = tested on: 786-0 renal
UO-31 renal = tested on: UO-31 renal
MDA-MB-435 = tested on: MDA-MB-435
NCI/ADR-RES ovarian = tested on: NCI/ADR-RES ovarian
HCC-2998 colon = tested on: HCC-2998 colon
HCT-116 colon = tested on: HCT-116 colon
MCF7 breast = tested on: MCF7 breast
DU-145 prostate = tested on: DU-145 prostate
T-47D breast = tested on: T-47D breast
HOP-18 NSCLC = tested on: HOP-18 NSCLC
PC-3 prostate = tested on: PC-3 prostate
HS 578T breast = tested on: HS 578T breast
MDA-N = tested on: MDA-N
A498 renal = tested on: A498 renal
EKVX NSCLC = tested on: EKVX NSCLC
SNB-78 CNS = tested on: SNB-78 CNS
KM20L2 colon = tested on: KM20L2 colon
MDA-MB-231 breast = tested on: MDA-MB-231 breast
DLD-1 colon = tested on: DLD-1 colon
NCI-H23 lung = tested on: NCI-H23 lung
XF 498 CNS = tested on: XF 498 CNS
SR leukemia = tested on: SR leukemia
BT-549 breast = tested on: BT-549 breast

With `CN=C(N)c1ccc(N=C(N)c2ccc(C(N)=Nc3ccc(C(N)=NC)cc3)cc2)cc1` the TGI (SK-MEL-28 melanoma) was > 100 µM, the TGI (RXF 393 renal) was > 100 µM and the TGI (TK-10 renal) was > 100 µM. The TGI (UACC-257 melanoma) was > 100 µM, the TGI (IGROV1 ovarian) was > 100 µM and the TGI (SN12C renal) was > 100 µM. The TGI (M19-MEL melanoma) was > 100 µM, the TGI (HCT-15 colon) was > 100 µM and the TGI (LOX IMVI melanoma) was > 100 µM. For the same compound, the TGI (OVCAR-8 ovarian) was > 100 µM, the TGI (A549 NSCLC) was > 100 µM and the TGI (OVCAR-4 ovarian) was > 100 µM. The TGI (DMS 114 small cell lung) was > 100 µM, the TGI (CAKI-1 renal) was > 100 µM and the TGI (SF-295 CNS) was > 100 µM. The TGI (SNB-75 CNS) was > 100 µM, the TGI (NCI-H522 lung) was > 100 µM and the TGI (HT29 colon) was > 100 µM. The TGI (K-562 leukemia) was > 100 µM, the TGI (RPMI-8226 leukemia) was > 100 µM and the TGI (DMS 273 small cell lung) was > 100 µM. The TGI (CCRF-CEM leukemia) was > 100 µM, the TGI (OVCAR-3 ovarian) was > 100 µM and the TGI (NCI-H226 lung) was > 100 µM. The TGI (SW-620 colon) was > 100 µM, the TGI (SK-MEL-2 melanoma) was > 100 µM and the TGI (SK-MEL-5 melanoma) was > 100 µM. For the same compound, the TGI (HOP-92 NSCLC) was > 100 µM, the TGI (HOP-62 NSCLC) was > 100 µM and the TGI (M14 melanoma) was > 100 µM. The TGI (SF-268 CNS) was > 100 µM, the TGI (NCI-H460 lung) was > 100 µM and the TGI (MALME-3M melanoma) was > 100 µM. The TGI (ACHN renal) was > 100 µM, the TGI (SF-539 CNS) was > 100 µM and the TGI (SNB-19 CNS) was > 100 µM. For the same compound, the TGI (MOLT-4 leukemia) was > 100 µM, the TGI (RXF-631 renal) was > 100 µM and the TGI (UACC-62 melanoma) was > 100 µM. For the same compound, the TGI (OVCAR-5 ovarian) was > 100 µM, the TGI (LXFL 529 NSCLC) was > 100 µM and the TGI (COLO 205 colon) was > 100 µM. For the same compound, the TGI (SK-OV-3 ovarian) was > 100 µM, the TGI (U251 CNS) was > 100 µM and the TGI (KM12 colon) was > 100 µM. The TGI (HL-60(TB) leukemia) was > 100 µM, the TGI (786-0 renal) was > 100 µM and the TGI (UO-31 renal) was > 100 µM.

For `C[N+](C)(C)CC(=O)N/N=C(\C(=O)NC1=C(Cl)C(=O)c2ccccc2C1=O)C(C#N)c1nc(-c2ccc([N+](=O)[O-])cc2)cs1` (stereo not given), the TGI (SK-MEL-28 melanoma) was 17.6 µM, the TGI (RXF 393 renal) was 30.2 µM and the TGI (TK-10 renal) was 74.6 µM. The TGI (UACC-257 melanoma) was 9.11 µM, the TGI (IGROV1 ovarian) was 18.4 µM and the TGI (SN12C renal) was 28.2 µM. The TGI (M19-MEL melanoma) was 2.2 µM, the TGI (MDA-MB-435) was 3.17 µM and the TGI (HCT-15 colon) was 18.8 µM. For the same compound, the TGI (NCI/ADR-RES ovarian) was > 57.5 µM, the TGI (LOX IMVI melanoma) was 9.48 µM and the TGI (OVCAR-8 ovarian) was 47.6 µM. It also gave a TGI (HCC-2998 colon) of 30.5 µM, a TGI (HCT-116 colon) of 20.8 µM and a TGI (A549 NSCLC) of 19.4 µM. For the same compound, the TGI (OVCAR-4 ovarian) was 23.3 µM, the TGI (DMS 114 small cell lung) was 9.62 µM and the TGI (CAKI-1 renal) was 48.6 µM. It also gave a TGI (MCF7 breast) of 22.3 µM, a TGI (DU-145 prostate) of 14.1 µM and a TGI (T-47D breast) of 37.9 µM. For the same compound, the TGI (HOP-18 NSCLC) was 18 µM, the TGI (PC-3 prostate) was 56.8 µM and the TGI (SF-295 CNS) was 18.9 µM. The TGI (SNB-75 CNS) was 19.9 µM, the TGI (NCI-H522 lung) was 19.2 µM and the TGI (HT29 colon) was 33.6 µM. It also gave a TGI (K-562 leukemia) of 61.1 µM, a TGI (RPMI-8226 leukemia) of 47 µM and a TGI (HS 578T breast) of 40.6 µM. The TGI (MDA-N) was 3.2 µM, the TGI (DMS 273 small cell lung) was 33.7 µM and the TGI (A498 renal) was 33.3 µM. For the same compound, the TGI (CCRF-CEM leukemia) was 49.5 µM, the TGI (OVCAR-3 ovarian) was 4.44 µM and the TGI (EKVX NSCLC) was 34.2 µM. The TGI (NCI-H226 lung) was 38.6 µM, the TGI (SW-620 colon) was 31.6 µM and the TGI (SK-MEL-2 melanoma) was 30.9 µM. For the same compound, the TGI (SK-MEL-5 melanoma) was 2.7 µM, the TGI (HOP-92 NSCLC) was 29 µM and the TGI (SNB-78 CNS) was 48.2 µM. The TGI (HOP-62 NSCLC) was 34.4 µM, the TGI (KM20L2 colon) was 42.5 µM and the TGI (MDA-MB-231 breast) was 39.3 µM. The TGI (M14 melanoma) was 8.65 µM, the TGI (SF-268 CNS) was 38.4 µM and the TGI (NCI-H460 lung) was 25.2 µM. The TGI (MALME-3M melanoma) was 3.97 µM, the TGI (ACHN renal) was 26 µM and the TGI (SF-539 CNS) was 22.3 µM. It also gave a TGI (SNB-19 CNS) of 39.8 µM, a TGI (MOLT-4 leukemia) of 53.7 µM and a TGI (DLD-1 colon) of 29.5 µM. It also gave a TGI (UACC-62 melanoma) of 9.27 µM, a TGI (NCI-H23 lung) of 11.4 µM and a TGI (XF 498 CNS) of 21.1 µM. It also gave a TGI (SR leukemia) of 52.5 µM, a TGI (OVCAR-5 ovarian) of 26.3 µM and a TGI (LXFL 529 NSCLC) of 21.4 µM. For the same compound, the TGI (COLO 205 colon) was 35 µM, the TGI (SK-OV-3 ovarian) was 41.8 µM and the TGI (U251 CNS) was 26.4 µM. It also gave a TGI (KM12 colon) of 63.7 µM, a TGI (HL-60(TB) leukemia) of 47.4 µM and a TGI (786-0 renal) of 29.1 µM. For the same compound, the TGI (UO-31 renal) was 31 µM and the TGI (BT-549 breast) was 15.1 µM.

`COc1ccc2oc(C(=O)O)c3c2c1CCC3CCC(=O)O` (stereo not given) was tested, and the TGI (SK-MEL-28 melanoma) was > 100 µM, the TGI (RXF 393 renal) was > 100 µM and the TGI (TK-10 renal) was > 100 µM. The TGI (UACC-257 melanoma) was > 100 µM, the TGI (IGROV1 ovarian) was > 100 µM and the TGI (SN12C renal) was > 100 µM. For the same compound, the TGI (M19-MEL melanoma) was > 100 µM, the TGI (LOX IMVI melanoma) was > 100 µM and the TGI (OVCAR-8 ovarian) was > 100 µM. The TGI (HCC-2998 colon) was > 100 µM, the TGI (HCT-116 colon) was > 100 µM and the TGI (A549 NSCLC) was > 100 µM. For the same compound, the TGI (OVCAR-4 ovarian) was > 100 µM, the TGI (DMS 114 small cell lung) was > 100 µM and the TGI (SF-295 CNS) was > 100 µM. The TGI (SNB-75 CNS) was > 100 µM, the TGI (NCI-H522 lung) was > 100 µM and the TGI (HT29 colon) was > 100 µM. For the same compound, the TGI (K-562 leukemia) was > 100 µM, the TGI (RPMI-8226 leukemia) was > 100 µM and the TGI (DMS 273 small cell lung) was > 100 µM. The TGI (A498 renal) was > 100 µM, the TGI (CCRF-CEM leukemia) was > 100 µM and the TGI (OVCAR-3 ovarian) was > 1 µM. The TGI (EKVX NSCLC) was > 100 µM, the TGI (SW-620 colon) was > 100 µM and the TGI (SK-MEL-2 melanoma) was > 100 µM. The TGI (SK-MEL-5 melanoma) was > 100 µM, the TGI (HOP-92 NSCLC) was > 100 µM and the TGI (SNB-78 CNS) was > 100 µM. The TGI (HOP-62 NSCLC) was > 1 µM, the TGI (M14 melanoma) was > 1 µM and the TGI (SF-268 CNS) was > 100 µM. The TGI (NCI-H460 lung) was > 100 µM, the TGI (MALME-3M melanoma) was > 100 µM and the TGI (ACHN renal) was > 100 µM. The TGI (SF-539 CNS) was > 100 µM, the TGI (SNB-19 CNS) was > 100 µM and the TGI (MOLT-4 leukemia) was > 100 µM. The TGI (DLD-1 colon) was > 100 µM, the TGI (RXF-631 renal) was > 100 µM and the TGI (UACC-62 melanoma) was > 100 µM. The TGI (NCI-H23 lung) was > 100 µM, the TGI (XF 498 CNS) was > 100 µM and the TGI (SR leukemia) was > 100 µM. The TGI (OVCAR-5 ovarian) was > 100 µM, the TGI (LXFL 529 NSCLC) was > 100 µM and the TGI (COLO 205 colon) was > 100 µM. The TGI (SK-OV-3 ovarian) was > 100 µM, the TGI (U251 CNS) was > 100 µM and the TGI (KM12 colon) was > 100 µM. For the same compound, the TGI (HL-60(TB) leukemia) was > 100 µM, the TGI (786-0 renal) was > 100 µM and the TGI (UO-31 renal) was > 100 µM.
